Experiments:
[1] = target: T1, M4 muscarinic receptor (Homo sapiens, UniProt P08173); assay: Functional mobilization of intracellular calcium (FLIPR) in M4-CHO cells; assay type: cell-based; settings: M4 receptor, calcium mobilization; for Emax: read-out: M4 Efficacy
T1 construct: expressed in transfected cells; host or cells: CHO (M4-CHO)
T1 sequence (P08173 1-479): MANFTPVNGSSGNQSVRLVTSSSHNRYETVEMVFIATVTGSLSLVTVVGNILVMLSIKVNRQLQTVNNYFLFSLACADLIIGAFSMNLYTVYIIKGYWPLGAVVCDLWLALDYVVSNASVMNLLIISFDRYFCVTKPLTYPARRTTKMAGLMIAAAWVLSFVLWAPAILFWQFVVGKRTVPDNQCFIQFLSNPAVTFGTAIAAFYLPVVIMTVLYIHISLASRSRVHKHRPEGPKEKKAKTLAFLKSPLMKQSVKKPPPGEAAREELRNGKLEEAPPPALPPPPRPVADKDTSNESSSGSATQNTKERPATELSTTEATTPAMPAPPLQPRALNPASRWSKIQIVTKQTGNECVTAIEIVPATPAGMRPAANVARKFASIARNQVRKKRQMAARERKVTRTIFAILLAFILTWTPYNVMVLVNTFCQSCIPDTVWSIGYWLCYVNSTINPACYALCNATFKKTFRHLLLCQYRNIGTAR
Procedure, shortened: (§1)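 Steps: seed M1- or M4-CHO cells 18-24 hrs ahead; load calcium dye with 1 mM probenecid; add test compound (0.5% DMSO final), either alone for agonism or 15 min before EC80 carbachol for inhibition; record FLIPR fluorescence for 60 sec.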

[2] = target: T2, M1 muscarinic receptor (Homo sapiens, UniProt P11229); assay: Functional mobilization of intracellular calcium (FLIPR) in M1-CHO cells; assay type: cell-based; settings: M1 receptor, calcium mobilization; for Emax: read-out: M1 Efficacy
T2 construct: expressed in transfected cells; host or cells: CHO (M1-CHO)
T2 sequence (P11229 1-460): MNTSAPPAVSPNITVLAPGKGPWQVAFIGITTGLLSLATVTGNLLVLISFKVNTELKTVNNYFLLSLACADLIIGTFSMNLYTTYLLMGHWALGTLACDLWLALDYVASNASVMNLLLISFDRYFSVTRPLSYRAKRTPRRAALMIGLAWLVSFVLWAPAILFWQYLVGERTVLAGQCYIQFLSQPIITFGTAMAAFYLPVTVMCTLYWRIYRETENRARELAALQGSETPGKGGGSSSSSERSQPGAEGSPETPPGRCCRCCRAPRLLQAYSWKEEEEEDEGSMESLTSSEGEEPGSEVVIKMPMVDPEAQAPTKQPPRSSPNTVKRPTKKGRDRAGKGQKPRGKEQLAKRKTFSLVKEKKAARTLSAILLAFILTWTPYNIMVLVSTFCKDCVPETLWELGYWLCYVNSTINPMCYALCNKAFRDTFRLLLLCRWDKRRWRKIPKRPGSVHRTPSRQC
Procedure, shortened: as §1

Row | Compound | M4 Activity [1] | Emax [1] | M1 Activity [2] | Emax [2] | M4 Efficacy [1] | M1 Efficacy [2]
1 | Cc1ccc2c(c1)C1(CCN(C3CC4CCC3C4)CC1)CN2C(=O)c1ccno1 (stereo not drawn) [compound 292] | x (activity was measured to be greater than 1.0 μM) | 65 to 85% | xx (activity was measured to be between 0.1 μM and 1.0 μM) | 65 to 85% |  | 
2 | COCCOC(=O)N1CCC(N2CCC3(CC2)CN(C(C)=O)c2ccc(C)cc23)CC1 [compound 293] | xxx (activity was measured to be less than 0.1 μM) | > 85% | xx (activity was measured to be between 0.1 μM and 1.0 μM) | > 85% |  | 
3 | CCCOC(=O)N1C2CCC1CC(N1CCC3(CC1)CN(S(C)(=O)=O)c1ccc(F)cc13)C2 (stereo not drawn) [compound 294] | xx (activity was measured to be between 0.1 μM and 1.0 μM) | 65 to 85% | xx (activity was measured to be between 0.1 μM and 1.0 μM) | > 85% |  | 
4 | CCOC(=O)N1CCC(N2CCC3(CC2)CN(C(C)=O)c2ccc(-c4ccc(C(F)(F)F)cc4)cc23)CC1 [compound 295] | xxx (activity was measured to be less than 0.1 μM) | 65 to 85% | xxx (activity was measured to be less than 0.1 μM) | 65 to 85% |  | 
5 | CCOC(=O)N1C2CCC1CC(N1CCC3(CC1)CN(C(=O)NC(C)C)c1ccc(F)cc13)C2 (stereo not drawn) [compound 296] | x (activity was measured to be greater than 1.0 μM) | 65 to 85% | x (activity was measured to be greater than 1.0 μM) | 65 to 85% |  | 
6 | CCCOC(=O)N1C2CCC1CC(N1CCC3(CC1)CN(C(=O)O[C@@H]1CCOC1)c1ccc(F)cc13)C2 (stereo partly drawn) [compound 297] | x (activity was measured to be greater than 1.0 μM) |  | x (activity was measured to be greater than 1.0 μM) |  | xx (efficacy was calculated to be between 85% and 65%) | xx (efficacy was calculated to be between 85% and 65%)
7 | CCOC(=O)N1C2CCC1CC(N1CCC3(CC1)CN(C(=O)Oc1ccc(F)cc1)c1ccc(F)cc13)C2 (stereo not drawn) [compound 298] | x (activity was measured to be greater than 1.0 μM) | 65 to 85% | x (activity was measured to be greater than 1.0 μM) | < 65% |  | 
8 | Fc1ccc2c(c1)C1(CCN(C3CCOCC3)CC1)CN2 [compound 299] | x (activity was measured to be greater than 1.0 μM) | 65 to 85% | x (activity was measured to be greater than 1.0 μM) | 65 to 85% |  | 
9 | Fc1ccc2c(c1)C1(CCN(C[C@H]3C[C@H]4CC[C@H]3O4)CC1)CN2 [compound 300] | x (activity was measured to be greater than 1.0 μM) | < 65% | xx (activity was measured to be between 0.1 μM and 1.0 μM) | 65 to 85% |  | 
10 | O=C(O[C@H]1CCOC1)N1C2CCC1CC(N1CCC3(CC1)C(=O)Nc1ccccc13)C2 (stereo partly drawn) [compound 301] | x (activity was measured to be greater than 1.0 μM) | < 65% | x (activity was measured to be greater than 1.0 μM) | < 65% |  | 
11 | CCCOC(=O)N1C2CCC1CC(N1CCC3(CC1)CN(C(=O)C1CCC1)c1ccc(F)cc13)C2 (stereo not drawn) [compound 302] | x (activity was measured to be greater than 1.0 μM) | < 65% | x (activity was measured to be greater than 1.0 μM) | < 65% |  | 
12 | CCOC(=O)N1CCC(N2CCC3(CC2)CN(CC(=O)CC)c2ccc(F)cc23)CC1 [compound 303] | x (activity was measured to be greater than 1.0 μM) | < 65% | xx (activity was measured to be between 0.1 μM and 1.0 μM) | > 85% |  | 
13 | COCCOC(=O)N1CC2(CCN(C3CC4CCC(C3)N4C(=O)O[C@@H]3CCOC3)CC2)c2cc(F)ccc21 (stereo partly drawn) [compound 304] | x (activity was measured to be greater than 1.0 μM) | < 65% | xxx (activity was measured to be less than 0.1 μM) | 65 to 85% |  | 
14 | CC(=O)NC1CC2(CCN(CC3CC4C=CC3C4)CC2)c2ccccc21 (stereo not drawn) [compound 305] | x (activity was measured to be greater than 1.0 μM) |  | x (activity was measured to be greater than 1.0 μM) |  | x (efficacy was calculated to be less than 65%) | x (efficacy was calculated to be less than 65%)
15 | CCCOC(=O)N1CCC(CN2CCC3(CC2)CN(C(C)=O)c2ccc(C)cc23)CC1 [compound 306] | x (activity was measured to be greater than 1.0 μM) | < 65% | x (activity was measured to be greater than 1.0 μM) | < 65% |  | 
16 | CCOC(=O)N1CCC(CN2CCC3(CC2)CN(C(C)=O)c2c(F)cccc23)CC1 [compound 307] | x (activity was measured to be greater than 1.0 μM) | < 65% | xx (activity was measured to be between 0.1 μM and 1.0 μM) | 65 to 85% |  | 
17 | CCOC(=O)N1C2CCC1CC(N1CCC3(CC1)CN(C(=O)c1ccncc1)c1ccc(F)cc13)C2 (stereo not drawn) [compound 308] | x (activity was measured to be greater than 1.0 μM) | < 65% | xxx (activity was measured to be less than 0.1 μM) | > 85% |  | 
18 | CCOC(=O)N1CCCC(N2CCC3(CC2)CN(C(C)=O)c2ccc(F)cc23)CC1 (stereo not drawn) [compound 309] | x (activity was measured to be greater than 1.0 μM) | < 65% | xx (activity was measured to be between 0.1 μM and 1.0 μM) | > 85% |  | 
19 | CCOC(=O)N1C2CCC1CC(N1CCC3(CC1)CNc1ccc(F)cc13)C2 (stereo not drawn) [compound 310] | x (activity was measured to be greater than 1.0 μM) | < 65% | xx (activity was measured to be between 0.1 μM and 1.0 μM) | < 65% |  | 
20 | COCCOC(=O)N1C2CCC1CC(N1CCC3(CC1)CN(C(=O)C1CC1)c1ccc(F)cc13)C2 (stereo not drawn) [compound 311] | x (activity was measured to be greater than 1.0 μM) | 65 to 85% | xxx (activity was measured to be less than 0.1 μM) | 65 to 85% |  | 
21 | COC(=O)N1CCC(N2CCC3(CC2)CN(C(C)=O)c2ccc(C)cc23)CC1 [compound 312] | x (activity was measured to be greater than 1.0 μM) | < 65% | x (activity was measured to be greater than 1.0 μM) | < 65% |  | 
22 | C1=C[C@H]2C[C@H]1C[C@H]2CN1CCC2(CCc3ccccc32)CC1 [compound 313] | x (activity was measured to be greater than 1.0 μM) | < 65% | x (activity was measured to be greater than 1.0 μM) | < 65% |  | 
23 | COC(=O)N1C2CCC1CC(N1CCC3(CC1)CN(C(=O)N(C)C)c1ccc(F)cc13)C2 (stereo not drawn) [compound 314] | x (activity was measured to be greater than 1.0 μM) | < 65% | xx (activity was measured to be between 0.1 μM and 1.0 μM) | < 65% |  | 
24 | CCOC(=O)N1CCC(C)(CN2CCC3(CC2)C[C@H](NC(C)=O)c2ccccc23)CC1 [compound 315] | x (activity was measured to be greater than 1.0 μM) | < 65% | x (activity was measured to be greater than 1.0 μM) | < 65% |  | 
25 | C#CCOC(=O)N1CCC(CN2CCC3(CC2)CN(C(C)=O)c2ccc(F)cc23)CC1 [compound 316] | x (activity was measured to be greater than 1.0 μM) | < 65% | x (activity was measured to be greater than 1.0 μM) | < 65% |  | 
26 | CCOC(=O)N1CCC(N2CCC3(CC2)CN(C(=O)CC)c2ccc(F)cc23)CC1 [compound 317] | x (activity was measured to be greater than 1.0 μM) | < 65% | x (activity was measured to be greater than 1.0 μM) | < 65% |  | 
27 | CCOC(=O)N1C2CCC1CC(N1CCC3(CC1)CC(NC(C)=O)c1ccccc13)C2 (stereo not drawn) [compound 318] | xxx (activity was measured to be less than 0.1 μM) | > 85% | xxx (activity was measured to be less than 0.1 μM) | 65 to 85% |  | 
